Test results published in patent US7902199B2, “Heterocyclic substituted piperazine compounds with CXCR3 antagonist activity” (Schering Corporation, priority 2006, dated 2011).

Target: T1, Human CXCR3 (N-delta 4) (Homo sapiens, UniProt P49682)
T1 construct: CD8 leader (N); Flag; expressed in transfected cells; membrane preparation
T1 sequence (P49682 5-368 limits assumed): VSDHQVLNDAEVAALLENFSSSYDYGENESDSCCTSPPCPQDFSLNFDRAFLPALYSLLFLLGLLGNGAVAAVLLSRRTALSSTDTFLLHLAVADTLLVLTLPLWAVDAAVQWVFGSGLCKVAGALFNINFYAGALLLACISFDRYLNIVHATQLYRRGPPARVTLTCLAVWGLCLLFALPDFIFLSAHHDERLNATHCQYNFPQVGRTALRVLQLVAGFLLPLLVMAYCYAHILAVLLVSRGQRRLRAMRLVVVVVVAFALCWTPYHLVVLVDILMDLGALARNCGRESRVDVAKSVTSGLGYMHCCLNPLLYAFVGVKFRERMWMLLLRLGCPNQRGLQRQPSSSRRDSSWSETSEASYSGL
Assay: Human CXCR3 (N-delta 4) Scintillation Proximity Assay (SPA), [125I] IP-10 binding
Settings: rating; 25 pM [125I] IP-10, Ba/F3-hCXCR3 (N-delta 4) membranes, 3 hr room temperature
Excerpt: The inventive compounds can readily be evaluated to determine activity at The CXCR3 receptors by known methods, such as, for example, Development of Human CXCR3 (N-delta 4) Binding Assay.
Cloning and Expression of Human CXCR3 (N-delta 4):
The DNA encoding human CXCR3 was cloned by PCR using human genomic DNA (Promega, Madison, Wis.) as a template. The PCR primers were designed based on the published sequence of human orphan receptor GPR9 (1) with incorporated restriction sites, a Kozak consensus sequence, CD8 leader and Flag tag. The PCR product was subcloned into the mammalian expression vector pME18neo, a derivative of the SR-alpha expression vector (designated as pME18Sneo-hCXCR3 (N-delta 4).
IL-3-dependent mouse pro-B cells Ba/F3 were transfected by electroporation in 0.4 ml Dulbecco's PBS containing 4×10^6 cells with 20 μg of pME18Sneo-hCXCR3 (N-delta 4) plasmid DNA. Cells were pulsed at 400 Volts, 100 OHMs, 960 μFd. The transfected cells were under selection with 1 mg/ml G418 (Life Technologies, Gaithersburg, Md.). G418-resistant Ba/F3 clones were screened for CXCR3 expression by specific binding of [^125I] IP-10 (NEN Life Science Products, Boston, Mass.).
Preparation of Ba/F3-hCXCR3 (N-delta 4) Membranes
Ba/F3 cells expressing human CXCR3 (N-delta 4) were pelleted and resuspended in the lysis buffer containing 10 mM HEPES, pH 7.5 and Complete® protease inhibitors (1 tablet per 100 ml) (Boehringer Mannheim, Indianapolis, Ind.) at a cell density of 20×10^6 cells per ml. After 5 minutes incubation on ice, cells were transferred to 4639 cell disruption bomb (Parr Instrument, Moline, Ill.) and applied with 1,500 psi of nitrogen for 30 minutes on ice. Large cellular debris was removed by centrifugation at 1,000×g. Cell membrane in the supernatant was sedimented at 100,000×g. The membrane was resuspended in the lysis buffer supplemented with 10% sucrose and stored at −80° C. Total protein concentration of the membrane was determined by BCA method from Pierce (Rockford, Ill.).
Human CXCR3 (N-delta 4) Scintillation Proximity Assay (SPA)
For each assay point, 2 μg of membrane was preincubated for 1 hr with 300 μg wheat germ agglutinin (WGA) coated SPA beads (Amersham, Arlington Heights, Ill.) in the binding buffer (50 mM HEPES, 1 mM CaCl2, 5 mM MgCl2, 125 mM NaCl, 0.002% NaN3, 1.0% BSA) at room temperature. The beads were spun down, washed once, resuspended in the binding buffer and transferred to a 96-well Isoplate (Wallac, Gaithersburg, Md.). 25 pM of [^125I] IP-10 with tested compounds in a series of titration were added to start the reaction. After 3 hr reaction at room temperature, the amount of [^125I] IP-10 bound to the SPA beads was determined with a Wallac 1450 Microbeta counter.
The Ki values for the various example compounds of the present invention are given in the afore-mentioned Table 1. From these values, it would be apparent to the skilled artisan that the compounds of the invention have excellent utility CXCR3 antagonists.

Ki	SMILES
< 25 nM	CCNC(=O)c1ccc(N2CCN(C3CCN(Cc4ccc(Cl)cc4)CC3)[C@@H](CC)C2)c(C)n1 [Compound 1]
< 25 nM	CC[C@H]1CN(c2ccc(C(=O)NC3CC3)nc2C)CCN1C1CCN(Cc2ccc(OC(F)(F)F)cc2)CC1 [Compound 2]
< 25 nM	CC[C@H]1CN(c2ccc(C(N)=O)nc2C)CCN1C1CCN(Cc2ccc(Cl)cc2)CC1 [Compound 3]
< 25 nM	CC[C@H]1CN(c2ccc(C(N)=O)nc2C)CCN1C1CCN(Cc2ccc(OC(F)(F)F)cc2)CC1 [Compound 4]
< 25 nM	CC[C@H]1CN(c2ccc(C(=O)NC3CC3)nc2C)CCN1C1CCN(C(=O)c2ccc(Cl)c(F)c2)CC1 [Compound 5]
< 25 nM	CC[C@H]1CN(c2ccc(C(=O)NC3CC3)nc2C)CCN1C1CCN(C(=O)c2ccc(Cl)cc2)CC1 [Compound 6]
< 25 nM	CC[C@H]1CN(c2ccc(C(=O)NC3CC3)nc2Cl)[C@H](C)CN1C1CCN(C(=O)c2ccc(Cl)cc2)CC1 [Compound 7]
< 25 nM	CC[C@H]1CN(c2ccc(C(=O)NC3CC3)nc2C)CCN1C1CCN(C(=O)c2ccc(F)c(F)c2)CC1 [Compound 8]
< 25 nM	CC[C@H]1CN(c2ccc(C(=O)NC3CC3)nc2C)[C@H](C)CN1C1CCN(C(=O)c2ccc(Cl)c(F)c2)CC1 [Compound 9]
< 25 nM	CC[C@H]1CN(c2ccc(C(N)=O)nc2C)CCN1C1CCN(C(=O)c2ccc(Cl)cc2)CC1 [Compound 10]
25 to 100 nM	CC[C@H]1CN(c2ccc(C(=O)NC3CC3)nc2C(F)(F)F)[C@H](C)CN1C1CCN(C(=O)c2ccc(Cl)cc2)CC1 [Compound 11]
> 100 nM	CC[C@H]1CN(c2cnc(C#N)cc2C)CCN1C1CCN(C(=O)c2ccc(Cl)cc2)CC1 [Compound 12]
> 100 nM	CC[C@H]1CN(c2ccc(CO)nc2C)CCN1C1CCN(C(=O)c2ccc(Cl)cc2)CC1 [Compound 13]
> 100 nM	CC[C@H]1CN(c2cnc(C(N)=O)cc2C)CCN1C1CCN(C(=O)c2ccc(Cl)cc2)CC1 [Compound 14]
